This passage reports EC50 results from US20250333406A1, “SULFONYL CYCLIC DERIVATIVES, AND COMPOSITIONS AND METHODS THEREOF” (Lysoway Therapeutics, Inc., priority 2023, published 2025).

In this experiment the test system is TFEB. Briefly: TFEB Nuclear Translocation Assay. Type of experiment: cell-based. The following applies: read-out: EC50 of TFEB activation.
For orientation: EC50 means the concentration needed to bring the measured effect to its halfway point. In the case of `CC(C)S(=O)(=O)c1ccc(S(=O)(=O)n2nc(N3CCN(c4ncc(F)cn4)C[C@H]3C3CC3)c3c(Cl)cccc32)cc1` (single isomer, unassigned) [Compound 61], the EC50 is at most 1 µM.
`CC(C)S(=O)(=O)c1ccc(S(=O)(=O)n2nc(N3CCN(c4ncc(F)cn4)C[C@H]3C(F)(F)F)c3c(Cl)cccc32)cc1` (single isomer, unassigned) [Compound 69]: the EC50 is at most 1 µM.
The figure for `CC(C)S(=O)(=O)c1ccc(S(=O)(=O)n2nc(N3CCN(C(=O)C(F)(F)F)C[C@H]3C(F)(F)F)c3c(Cl)cccc32)cc1` (single isomer, unassigned) [Compound 71] is at most 1 µM.
`CC(C)S(=O)(=O)c1ccc(S(=O)(=O)n2nc(N3CCN(c4ncc(F)cn4)C[C@H]3C(F)(F)F)c3c(F)cccc32)cc1` (single isomer, unassigned) [Compound 73]: the EC50 is at most 1 µM.
The figure for `CC(C)S(=O)(=O)c1ccc(S(=O)(=O)n2nc(N3CC=C(Cl)C[C@H]3C(F)(F)F)c3c(Cl)cccc32)cc1` (single isomer, unassigned) [Compound 83] is at most 1 µM.
In the case of `CC(F)(F)c1ccc(S(=O)(=O)n2nc(N3CCN(c4ncc(F)cn4)C[C@@H]3C(F)(F)F)c3c(Cl)cccc32)cc1` (single isomer, unassigned) [Compound 107], the half-maximal effective concentration (EC50) is at most 1 µM.
Consider `CC(C)S(=O)(=O)c1ccc(S(=O)(=O)n2nc(N3CCC[C@H]3C(F)(F)F)c3c(Cl)cccc32)cc1` (single isomer, unassigned) [Compound 110], for which the EC50 was at most 1 µM.
As for `CC(F)(F)c1ccc(S(=O)(=O)n2nc(N3CCN(c4ncc(F)cn4)C[C@@H]3C(C)(C)F)c3c(Cl)cccc32)cc1` (single isomer, unassigned) [Compound 122], the EC50 was at most 1 µM.
As for `CC(C)(C)S(=O)(=O)c1ccc(S(=O)(=O)n2nc(N3CCN(c4ncc(Cl)cn4)CC34CC4)c3c(Cl)cccc32)s1` [Compound 1, 1-[(5-tert-butylsulfonyl-2-thienyl)sulfonyl]-4-chloro-3-[7-(5-chloropyrimidin-2-yl)-4,7-diazaspiro [2.5]octan-4-yl]indazole], the EC50 was at most 1 µM.
The figure for `CC(C)S(=O)(=O)c1ccc(S(=O)(=O)n2nc(N3CCN(c4ncc(Cl)cn4)CC34CC4)c3c(Cl)cccc32)cc1` [Compound 2, 4-chloro-3-(7-(5-chloropyrimidin-2-yl)-4,7-diazaspiro [2.5]octan-4-yl)-1-((4-(isopropylsulfonyl)phenyl)sulfonyl)-1H-indazole] is at most 1 µM; for `CC(C)S(=O)(=O)c1ccc(S(=O)(=O)n2nc(N3CCN(c4ncc(F)cn4)CC34CC4)c3c(Cl)cc(F)cc32)cc1` [Compound 3, 4-chloro-6-fluoro-3-(7-(5-fluoropyrimidin-2-yl)-4,7-diazaspiro [2.5]octan-4-yl)-1-((4-(isopropylsulfonyl)phenyl)sulfonyl)-1H-indazole] it is at most 1 µM; for `CC(C)S(=O)(=O)c1cccc(S(=O)(=O)n2nc(N3CCN(c4ncc(Cl)cn4)CC34CC4)c3c(Cl)cccc32)c1` [Compound 4, 4-chloro-3-[7-(5-chloropyrimidin-2-yl)-4,7-diazaspiro [2.5]octan-4-yl]-1-(3-isopropylsulfonylphenyl) sulfonyl-indazole] it is at most 1 µM.
The same measure for `CC(C)S(=O)(=O)c1ccc(S(=O)(=O)n2nc(N3CCN(c4ncc(Cl)cn4)CC3C3CC3)c3c(Cl)cccc32)s1` (stereo not drawn) [Compound 5, 4-chloro-3-[4-(5-chloropyrimidin-2-yl)-2-cyclopropyl-piperazin-1-yl]-1-[(5-isopropylsulfonyl-2-thienyl)sulfonyl]indazole]: at most 1 µM.
Regarding `CC(C)S(=O)(=O)c1ccc(S(=O)(=O)n2nc(N3CCN(CC(F)(F)F)CC34CC4)c3c(Cl)cccc32)s1` [Compound 6, 4-chloro-1-[(5-isopropylsulfonyl-2-thienyl)sulfonyl]-3-[7-(2,2,2-trifluoroethyl)-4,7-diazaspiro [2.5]octan-4-yl]indazole], the EC50 is at most 1 µM.
The figure for `CC(C)S(=O)(=O)c1ccc(S(=O)(=O)n2nc(N3CCOCC34CC4)c3c(Cl)cccc32)s1` [Compound 7, 4-[4-chloro-1-[(5-isopropylsulfonyl-2-thienyl)sulfonyl]indazol-3-yl]-7-oxa-4-azaspiro [2.5]octane] is at most 1 µM; for `CC(C)S(=O)(=O)c1ccc(S(=O)(=O)n2nc(N3CCC(=O)CC34CC4)c3c(Cl)cccc32)s1` [Compound 8, 4-[4-chloro-1-[(5-isopropylsulfonyl-2-thienyl)sulfonyl]indazol-3-yl]-4-azaspiro [2.5]octan-7-one] it is at most 1 µM.
The figure for `CC(C)S(=O)(=O)c1ccc(S(=O)(=O)n2nc(N3CCN(C(=O)C(F)(F)F)CC34CC4)c3c(Cl)cccc32)s1` [Compound 9, 1-[4-[4-chloro-1-[(5-isopropylsulfonyl-2-thienyl)sulfonyl]indazol-3-yl]-4,7-diazaspiro [2.5]octan-7-yl]-2,2,2-trifluoro-ethanone] is at most 1 µM.
The figure for `CC(C)S(=O)(=O)c1ccc(S(=O)(=O)n2nc(N3CCN(c4ncc(F)cn4)CC34CC4)c3c(Cl)cccc32)cc1` [Compound 10, 4-chloro-3-[7-(5-fluoropyrimidin-2-yl)-4,7-diazaspiro [2.5]octan-4-yl]-1-(4-isopropylsulfonylphenyl) sulfonyl-indazole] is at most 1 µM; for `CC(C)S(=O)(=O)c1ccc(S(=O)(=O)n2nc(N3CCC(F)CC34CC4)c3c(Cl)cccc32)s1` (stereo not drawn) [Compound 11, 4-chloro-3-(7-fluoro-4-azaspiro [2.5]octan-4-yl)-1-[(5-isopropylsulfonyl-2-thienyl)sulfonyl]indazole] it is at most 1 µM.
For `CC(C)S(=O)(=O)c1ccc(S(=O)(=O)n2nc(N3CCC(F)(F)CC34CC4)c3c(Cl)cccc32)s1` [Compound 12, 4-chloro-3-(7,7-difluoro-4-azaspiro [2.5]octan-4-yl)-1-[(5-isopropylsulfonyl-2-thienyl)sulfonyl]indazole], the EC50 was at most 1 µM.
Turning to `CC(C)S(=O)(=O)c1ccc(S(=O)(=O)n2nc(N3CCC(N(C)C)CC34CC4)c3c(Cl)cccc32)s1` (stereo not drawn) [Compound 13, 4-[4-chloro-1-[(5-isopropylsulfonyl-2-thienyl)sulfonyl]indazol-3-yl]-N, N-dimethyl-4-azaspiro [2.5]octan-7-amine], the concentration for a half-maximal effect (EC50) was at most 1 µM.
For the compound `CC(C)S(=O)(=O)c1ccc(S(=O)(=O)n2nc(N3CCN(S(=O)(=O)C(F)(F)F)CC34CC4)c3c(Cl)cccc32)s1` [Compound 14, 4-chloro-1-[(5-isopropylsulfonyl-2-thienyl)sulfonyl]-3-[7-(trifluoromethylsulfonyl)-4,7-diazaspiro [2.5]octan-4-yl]indazole], the EC50 is at most 1 µM.
The figure for `CC(C)S(=O)(=O)c1ccc(S(=O)(=O)n2nc(N3CCN(c4ncc(Cl)cn4)CC34CC4)c3c(F)cccc32)cc1` [Compound 15, 3-(7-(5-chloropyrimidin-2-yl)-4,7-diazaspiro [2.5]octan-4-yl)-4-fluoro-1-((4-(isopropylsulfonyl)phenyl)sulfonyl)-1H-indazole] is at most 1 µM; for `CC(C)S(=O)(=O)c1ccc(S(=O)(=O)n2nc(N3CCN(c4ncc(F)cn4)CC34CC4)c3c(F)cccc32)cc1` [Compound 16, 4-fluoro-3-(7-(5-fluoropyrimidin-2-yl)-4,7-diazaspiro [2.5]octan-4-yl)-1-((4-(isopropylsulfonyl)phenyl)sulfonyl)-1H-indazole] it is at most 1 µM.
